Test results as given in ChEMBL document CHEMBL3885861, “Open TG-GATES”.

Species: Rattus norvegicus
Experiment: Open TG-GATES - Regimen: Single
Type: toxicity, organism-based, Sprague-Dawley
Parameters: regimen Single, gender Male, age 6 weeks
Conditions: in vivo, po, 30 mg/kg, route gavage, dose level High; for APTT / Bas / Eos / Fbg / Hb / Ht / Lym / MCH / MCHC / MCV / Mono / Neu / PT / Plat / RBC / Ret / WBC: tissue Blood; for KIDNEY_L / KIDNEY_R / KIDNEY_TOTAL: tissue Kidney; for LIVER: tissue Liver; for A/G / ALP / ALT / AST / BUN / CRE / Ca / Cl / DBIL / GLC / IP / K / LDH / Na / PL / RALB / TBIL / TC / TG / TP / gamma-GTP: tissue Plasma

Q: `Cn1cnc([N+](=O)[O-])c1Sc1ncnc2nc[nH]c12` [AZATHIOPRINE] was tested. Which TERMINAL_BW (3 h) did it give?
A: 191.2 g

Q: What about the APTT (3 h) of the same molecule?
A: 22.3 s

Q: And the Bas (3 h)?
A: 0%

Q: What about the Eos (3 h) of the same molecule?
A: 1%

Q: What about the Fbg (3 h) of the same molecule?
A: 297.8 mg/dL

Q: What about the Hb (3 h) of the same molecule?
A: 13.1 g/dL

Q: What about the Ht (3 h) of the same molecule?
A: 39.1%

Q: And the Lym (3 h)?
A: 71.8%

Q: What about the MCH (3 h) of the same molecule?
A: 21.6 pg

Q: What about the MCHC (3 h) of the same molecule?
A: 33.5%

Q: What about the MCV (3 h) of the same molecule?
A: 64.6 fL

Q: What about the Mono (3 h) of the same molecule?
A: 1.8%

Q: And the Neu (3 h)?
A: 24.6%

Q: And the PT (3 h)?
A: 15.5 s

Q: What about the Plat (3 h) of the same molecule?
A: 118.4 x10_4/uL

Q: And the RBC (3 h)?
A: 605.8 x10_4/ul

Q: What about the Ret (3 h) of the same molecule?
A: 9.2%

Q: And the WBC (3 h)?
A: 56 x10_2/uL

Q: And the KIDNEY_L (3 h)?
A: 0.9 g

Q: And the KIDNEY_R (3 h)?
A: 0.9 g

Q: And the KIDNEY_TOTAL (3 h)?
A: 1.7 g

Q: What about the LIVER (3 h) of the same molecule?
A: 8.5 g

Q: What about the A/G (3 h) of the same molecule?
A: 1.2

Q: What about the ALP (3 h) of the same molecule?
A: 1649.8 IU/L

Q: What about the ALT (3 h) of the same molecule?
A: 41.6 IU/L

Q: What about the AST (3 h) of the same molecule?
A: 73.2 IU/L

Q: And the BUN (3 h)?
A: 10.6 mg/dL

Q: And the CRE (3 h)?
A: 0.1 mg/dL

Q: What about the Ca (3 h) of the same molecule?
A: 10.3 mg/dL

Q: What about the Cl (3 h) of the same molecule?
A: 104.8 meq/L

Q: And the DBIL (3 h)?
A: 0.004 mg/dL

Q: What about the GLC (3 h) of the same molecule?
A: 182.8 mg/dL

Q: And the IP (3 h)?
A: 9 mg/dL

Q: What about the K (3 h) of the same molecule?
A: 4 meq/L

Q: And the LDH (3 h)?
A: 171.8 IU/L

Q: And the Na (3 h)?
A: 143.2 meq/L

Q: What about the PL (3 h) of the same molecule?
A: 138.4 mg/dL

Q: What about the RALB (3 h) of the same molecule?
A: 3 g/dL

Q: And the TBIL (3 h)?
A: 0.01 mg/dL

Q: What about the TC (3 h) of the same molecule?
A: 80.4 mg/dL

Q: And the TG (3 h)?
A: 47.6 mg/dL

Q: What about the TP (3 h) of the same molecule?
A: 5.4 g/dL

Q: What about the gamma-GTP (3 h) of the same molecule?
A: 1 IU/L

Q: And the TERMINAL_BW (6 h)?
A: 192.3 g

Q: What about the APTT (6 h) of the same molecule?
A: 21 s

Q: What about the Bas (6 h) of the same molecule?
A: 0%

Q: And the Eos (6 h)?
A: 0.8%

Q: And the Fbg (6 h)?
A: 311.8 mg/dL

Q: What about the Hb (6 h) of the same molecule?
A: 13.2 g/dL

Q: What about the Ht (6 h) of the same molecule?
A: 39.6%

Q: What about the Lym (6 h) of the same molecule?
A: 71.4%

Q: And the MCH (6 h)?
A: 21.5 pg

Q: What about the MCHC (6 h) of the same molecule?
A: 33.3%

Q: What about the MCV (6 h) of the same molecule?
A: 64.8 fL

Q: What about the Mono (6 h) of the same molecule?
A: 2.2%

Q: And the Neu (6 h)?
A: 25%

Q: What about the PT (6 h) of the same molecule?
A: 15.5 s

Q: And the Plat (6 h)?
A: 120.3 x10_4/uL

Q: And the RBC (6 h)?
A: 612.2 x10_4/ul

Q: And the Ret (6 h)?
A: 9%

Q: And the WBC (6 h)?
A: 54.6 x10_2/uL

Q: What about the KIDNEY_L (6 h) of the same molecule?
A: 0.9 g

Q: And the KIDNEY_R (6 h)?
A: 0.9 g

Q: And the KIDNEY_TOTAL (6 h)?
A: 1.8 g

Q: And the LIVER (6 h)?
A: 7.9 g

Q: And the A/G (6 h)?
A: 1.1

Q: And the ALP (6 h)?
A: 1635.4 IU/L

Q: And the ALT (6 h)?
A: 36.4 IU/L

Q: What about the AST (6 h) of the same molecule?
A: 69.8 IU/L

Q: And the BUN (6 h)?
A: 9.8 mg/dL

Q: What about the CRE (6 h) of the same molecule?
A: 0.2 mg/dL

Q: And the Ca (6 h)?
A: 10.6 mg/dL

Q: And the Cl (6 h)?
A: 104.8 meq/L

Q: And the DBIL (6 h)?
A: 0.002 mg/dL

Q: What about the GLC (6 h) of the same molecule?
A: 187.4 mg/dL

Q: And the IP (6 h)?
A: 9.1 mg/dL

Q: And the K (6 h)?
A: 4.4 meq/L

Q: What about the LDH (6 h) of the same molecule?
A: 221 IU/L

Q: What about the Na (6 h) of the same molecule?
A: 141.2 meq/L

Q: What about the PL (6 h) of the same molecule?
A: 127.2 mg/dL

Q: What about the RALB (6 h) of the same molecule?
A: 2.9 g/dL

Q: And the TBIL (6 h)?
A: 0.008 mg/dL

Q: What about the TC (6 h) of the same molecule?
A: 73.4 mg/dL

Q: What about the TG (6 h) of the same molecule?
A: 44.6 mg/dL

Q: What about the TP (6 h) of the same molecule?
A: 5.5 g/dL

Q: What about the gamma-GTP (6 h) of the same molecule?
A: 1 IU/L

Q: What about the TERMINAL_BW (9 h) of the same molecule?
A: 184.1 g

Q: What about the APTT (9 h) of the same molecule?
A: 22 s

Q: What about the Bas (9 h) of the same molecule?
A: 0%

Q: What about the Eos (9 h) of the same molecule?
A: 0.8%

Q: What about the Fbg (9 h) of the same molecule?
A: 328.4 mg/dL

Q: What about the Hb (9 h) of the same molecule?
A: 12.7 g/dL

Q: And the Ht (9 h)?
A: 38.7%

Q: And the Lym (9 h)?
A: 74.4%

Q: And the MCH (9 h)?
A: 21.3 pg

Q: What about the MCHC (9 h) of the same molecule?
A: 32.9%

Q: And the MCV (9 h)?
A: 64.9 fL

Q: And the Mono (9 h)?
A: 2.8%

Q: And the Neu (9 h)?
A: 20.6%

Q: And the PT (9 h)?
A: 15.5 s

Q: What about the Plat (9 h) of the same molecule?
A: 102.9 x10_4/uL

Q: What about the RBC (9 h) of the same molecule?
A: 598 x10_4/ul

Q: And the Ret (9 h)?
A: 9.2%

Q: And the WBC (9 h)?
A: 79 x10_2/uL

Q: And the KIDNEY_L (9 h)?
A: 0.8 g

Q: What about the KIDNEY_R (9 h) of the same molecule?
A: 0.9 g

Q: What about the KIDNEY_TOTAL (9 h) of the same molecule?
A: 1.7 g

Q: What about the LIVER (9 h) of the same molecule?
A: 7.5 g

Q: And the A/G (9 h)?
A: 1.2

Q: What about the ALP (9 h) of the same molecule?
A: 1634.6 IU/L

Q: What about the ALT (9 h) of the same molecule?
A: 35.4 IU/L

Q: And the AST (9 h)?
A: 77 IU/L

Q: And the BUN (9 h)?
A: 11.4 mg/dL

Q: What about the CRE (9 h) of the same molecule?
A: 0.1 mg/dL

Q: What about the Ca (9 h) of the same molecule?
A: 10.5 mg/dL

Q: And the Cl (9 h)?
A: 106 meq/L

Q: And the DBIL (9 h)?
A: 0.002 mg/dL

Q: And the GLC (9 h)?
A: 190 mg/dL

Q: What about the IP (9 h) of the same molecule?
A: 9.4 mg/dL

Q: What about the K (9 h) of the same molecule?
A: 4.5 meq/L

Q: What about the LDH (9 h) of the same molecule?
A: 231.8 IU/L

Q: And the Na (9 h)?
A: 140.8 meq/L

Q: What about the PL (9 h) of the same molecule?
A: 140.2 mg/dL

Q: And the RALB (9 h)?
A: 2.9 g/dL

Q: And the TBIL (9 h)?
A: 0.01 mg/dL

Q: And the TC (9 h)?
A: 85.8 mg/dL

Q: And the TG (9 h)?
A: 37.2 mg/dL

Q: What about the TP (9 h) of the same molecule?
A: 5.4 g/dL

Q: What about the gamma-GTP (9 h) of the same molecule?
A: 1.2 IU/L

Q: And the TERMINAL_BW (24 h)?
A: 199.8 g

Q: And the APTT (24 h)?
A: 19.8 s

Q: What about the Bas (24 h) of the same molecule?
A: 0%

Q: What about the Eos (24 h) of the same molecule?
A: 0.8%

Q: What about the Fbg (24 h) of the same molecule?
A: 345.2 mg/dL

Q: What about the Hb (24 h) of the same molecule?
A: 13 g/dL

Q: What about the Ht (24 h) of the same molecule?
A: 38.7%

Q: And the Lym (24 h)?
A: 86%

Q: What about the MCH (24 h) of the same molecule?
A: 21.7 pg

Q: What about the MCHC (24 h) of the same molecule?
A: 33.6%

Q: What about the MCV (24 h) of the same molecule?
A: 64.6 fL

Q: What about the Mono (24 h) of the same molecule?
A: 1.8%

Q: And the Neu (24 h)?
A: 10.4%

Q: And the PT (24 h)?
A: 15 s

Q: What about the Plat (24 h) of the same molecule?
A: 125.5 x10_4/uL

Q: What about the RBC (24 h) of the same molecule?
A: 599 x10_4/ul

Q: And the Ret (24 h)?
A: 7.7%

Q: What about the WBC (24 h) of the same molecule?
A: 68.5 x10_2/uL

Q: What about the KIDNEY_L (24 h) of the same molecule?
A: 0.9 g

Q: What about the KIDNEY_R (24 h) of the same molecule?
A: 0.9 g

Q: And the KIDNEY_TOTAL (24 h)?
A: 1.8 g

Q: What about the LIVER (24 h) of the same molecule?
A: 9.1 g

Q: What about the A/G (24 h) of the same molecule?
A: 1.2

Q: And the ALP (24 h)?
A: 1513.8 IU/L

Q: And the ALT (24 h)?
A: 44.2 IU/L

Q: What about the AST (24 h) of the same molecule?
A: 73.6 IU/L

Q: And the BUN (24 h)?
A: 15.4 mg/dL

Q: And the CRE (24 h)?
A: 0.1 mg/dL

Q: What about the Ca (24 h) of the same molecule?
A: 11.1 mg/dL

Q: What about the Cl (24 h) of the same molecule?
A: 105.2 meq/L

Q: What about the DBIL (24 h) of the same molecule?
A: 0 mg/dL

Q: What about the GLC (24 h) of the same molecule?
A: 190.8 mg/dL

Q: And the IP (24 h)?
A: 7.6 mg/dL

Q: What about the K (24 h) of the same molecule?
A: 4.2 meq/L

Q: What about the LDH (24 h) of the same molecule?
A: 210.4 IU/L

Q: And the Na (24 h)?
A: 142 meq/L

Q: And the PL (24 h)?
A: 161.2 mg/dL

Q: What about the RALB (24 h) of the same molecule?
A: 3.1 g/dL

Q: What about the TBIL (24 h) of the same molecule?
A: 0.014 mg/dL

Q: And the TC (24 h)?
A: 102.6 mg/dL

Q: What about the TG (24 h) of the same molecule?
A: 39.4 mg/dL

Q: What about the TP (24 h) of the same molecule?
A: 5.7 g/dL

Q: What about the gamma-GTP (24 h) of the same molecule?
A: 1.4 IU/L
